The numbers were not newly measured in patent US9532968B1, “Fumarate compounds, pharmaceutical compositions thereof, and methods of use” (priority 2015, dated 2017), which cites them from elsewhere.

With `COC(=O)/C=C/C(=O)OC` [DMF, dimethylfumarate], the aqueous solubility result was “poor”.
